Assay results reported in ChEMBL document CHEMBL1687860, “Ring B aromatic norpimarane glucoside from a Xylaria sp” (J Nat Prod, 2011).

Assays:
[1] = tested on: KB; experiment: Cytotoxicity against human KB cells by resazurin microplate assay; type: functional, cell-based
[2] = tested on: NCI-H187; experiment: Cytotoxicity against human NCI-H187 by resazurin microplate assay; type: functional, cell-based
[3] = tested on: Vero; experiment: Cytotoxicity against african green monkey Vero cells by green fluorescent protein microplate assay; type: cell-based; conditions: Chlorocebus sabaeus
[4] = tested on: MCF7; experiment: Cytotoxicity against human MCF7 cells by resazurin microplate assay; type: functional, cell-based

Which IC50 [1] does the source give for `C=C[C@@]1(C)CCc2c3c(c(O)c(O[C@H]4O[C@H](CO)[C@@H](O)[C@H](O)[C@H]4O)c2[C@H]1O)C(C)(C)CCC3` [XYLOPIMARANE] here?
Its IC50 is 1 µM.

What about the IC50 [2] of the same compound?
Its IC50 is 65 µM.

What about the IC50 [3] of the same compound?
Its IC50 is 41 µM.

What about the IC50 [4] of the same compound?
Its IC50 is 13 µM.
